{
  "source": "patent US8431603B2",
  "about": "“3-phenylpyrazolo[5,1-b]thiazole compounds” (Eisai R&D Management Co., Ltd., priority 2008, dated 2013)",
  "origin": "cited, not measured here",
  "key": {"[1]": {"details": "in vivo; cited from earlier work"}, "[2]": {"details": "in vivo; cited from earlier work", "remark": "listed apart in the source"}, "Tg2576 mice": {"test_system": "Tg2576 mice", "details": "cited from earlier work"}, "rat": {"test_system": "rat", "details": "cited from earlier work"}, "[3]": {"details": "in vivo; cited from earlier work", "remark": "listed apart in the source"}},
  "data": [
    {"smiles": "CCCCN(CC)c1nc(C)nc2c1c(C)c(C)n2-c1c(C)cc(C)cc1C", "note": "[antalarmin]", "values": [
      {"measurement": "stress-induced hippocampal tau phosphorylation", "setting": "[1]", "value": "inhibits"},
      {"measurement": "hypertension induced by intraventricular administration of CRF", "setting": "[2]", "value": "inhibits"}
    ]},
    {"smiles": "CCCN(CC1CC1)c1nc(C)nc(Nc2c(Cl)cc(Cl)cc2Cl)c1Cl", "note": "[NBI-27914]", "values": [
      {"measurement": "increased levels of Aβ and Aβ plaque deposition induced by stress", "setting": "Tg2576 mice", "value": "inhibits"},
      {"measurement": "water avoidance stress-related rat catharsis", "setting": "rat", "value": "inhibits"},
      {"measurement": "limbic system seizure (convulsion and epilepsy induced by CRF administration)", "setting": "[3]", "value": "inhibits"}
    ]}
  ]
}
